From US5030760A, “Tetrahydrophthalimides, and their production and use” (Sumitomo Chemical Company, Ltd., priority 1981, dated 1991)

Columns and labels:
[1] = test system: soybean; assay: Test Example 4, pre-emergence treatment, phytotoxicity to soybean; type: in vivo; details: 20 days; also: ranges in brackets are in %
Protocol: (§1) The application of the tetrahydrophthalimides (I) as herbicides will be illustratively shown in the following Examples wherein the phytotoxicity to cultivated plants and the herbicidal activity on weeds were evaluated as follows: the aerial parts of the test plants were cut off and weighed (fresh weight); the percentage of the fresh weight of the treated plant to that of the untreated plant was calculated with the latter fresh weight taken as 100; and the crop damage and the herbicidal activity were evaluated by the standard given in the table below. The rating values of phytotoxicity, 0 and 1, and those of herbicidal effect, 5 and 4, are generally regarded as satisfactory to protect cultivated plants and control weeds, respectively. The rating values in the paddy field test alone were calculated from the dry weight of the test plants.
(§2) Plastic beakers (diameter, 10 cm; height, 10 cm) were filled with upland field soil, and the seeds of corn, cotton and soybean and the seeds of morningglory, velvetleaf, Johnsongrass and green foxtail were separately sown in the beakers. A designed amount of the test compound was sprayed over the top by means of a small hand sprayer. After the spraying, the test plants were grown for 20 days in the greenhouse, and herbicidal activity and phytotoxicity were examined. In this pre-emergence treatment, the test compounds were formulated into an emulsifiable concentrate according to Preparation Example 2 and applied at a spray volume of 5 liters per are by dispersing it in water with the addition of a spreading agent.

[2] = test system: morningglory; assay: Test Example 4, pre-emergence treatment, herbicidal activity; type: in vivo; details: 20 days; also: ranges in brackets are in %
Protocol: as §1, §2

[3] = test system: corn; assay: Test Example 3, soil surface spraying, phytotoxicity to corn; type: in vivo; details: 20 days; also: ranges in brackets are in %
Protocol: as §1
(§3) Plastic trays (35 cm×25 cm×15 cm) were filled with upland field soil, and the seeds of tall morningglory, velvetleaf and sicklepod and the seeds of corn were sown therein. A designed amount of the test compounds formulated into a wettable powder according to Preparation Example 1 was dispersed in water and applied by spraying at a spray volume of 5 liters per are to the whole surface of the soil. After the spraying, the test plants were placed in a greenhouse and grown for 20 days, and herbicidal activity and phytotoxicity were examined.

[4] = test system: corn; assay: Test Example 4, pre-emergence treatment, phytotoxicity to corn; type: in vivo; details: 20 days; also: ranges in brackets are in %
Protocol: as §1, §2

[5] = test system: green foxtail; assay: Test Example 4, pre-emergence treatment, herbicidal activity; type: in vivo, Setaria viridis; details: 20 days; also: ranges in brackets are in %
Protocol: as §1, §2

[6] = test system: wild oat; assay: Test Example 1, foliar treatment, herbicidal activity; type: in vivo, Avena fatua; details: 3 weeks; also: ranges in brackets are in %
Protocol: as §1
(§4) Plastic beakers (diameter, 10 cm; height, 10 cm) were filled with upland field soil, and the seeds of corn, barnyardgrass, wild oat, wild mustard and velvetleaf were separately sown in the beakers and grown for 2 weeks in the greenhouse. A designed amount of the test compound was sprayed to the foliage of the test plants by means of a small hand sprayer. After the spraying, the test plants were further grown for 3 weeks in the greenhouse, and herbicidal activity was examined. In this foliar treatment, the test compounds were formulated into an emulsifiable concentrate according to Preparation Example 2 and applied at a spray volume of 5 liters per are by dispersing it in water with the addition of a spreading agent.

[7] = test system: cotton; assay: Test Example 4, pre-emergence treatment, phytotoxicity to cotton; type: in vivo; details: 20 days; also: ranges in brackets are in %
Protocol: as §1, §2

[8] = test system: sicklepod; assay: Test Example 3, soil surface spraying, herbicidal activity; type: in vivo, Cassia obtusifolia; details: 20 days; also: ranges in brackets are in %
Protocol: as §1, §3

[9] = test system: wild mustard; assay: Test Example 1, foliar treatment, herbicidal activity; type: in vivo, Brassica kaber; details: 3 weeks
Protocol: as §1, §4

[10] = test system: velvetleaf; assay: Test Example 3, soil surface spraying, herbicidal activity; type: in vivo, Abutilon theophrasti; details: 20 days; also: ranges in brackets are in %
Protocol: as §1, §3

[11] = test system: barnyardgrass; assay: Test Example 1, foliar treatment, herbicidal activity; type: in vivo, Echinochloa crus-galli; details: 3 weeks; also: ranges in brackets are in %
Protocol: as §1, §4

[12] = test system: corn; assay: Test Example 1, foliar treatment, phytotoxicity to corn; type: in vivo; details: 3 weeks; also: ranges in brackets are in %
Protocol: as §1, §4

[13] = test system: velvetleaf; assay: Test Example 4, pre-emergence treatment, herbicidal activity; type: in vivo, Abutilon theophrasti; details: 20 days; also: ranges in brackets are in %
Protocol: as §1, §2

[14] = test system: tall morningglory; assay: Test Example 3, soil surface spraying, herbicidal activity; type: in vivo, Ipomoea purpurea; details: 20 days; also: ranges in brackets are in %
Protocol: as §1, §3

[15] = test system: velvetleaf; assay: Test Example 1, foliar treatment, herbicidal activity; type: in vivo, Abutilon theophrasti; details: 3 weeks; also: ranges in brackets are in %
Protocol: as §1, §4

[16] = test system: Johnsongrass; assay: Test Example 4, pre-emergence treatment, herbicidal activity; type: in vivo, Sorghum halepense; details: 20 days; also: ranges in brackets are in %
Protocol: as §1, §2

CCOc1cc(N2C(=O)C3=C(CCCC3)C2=O)c(F)cc1Cl [compound 2]
0 (100): Phytotoxicity, Soybean ([1]; 2.5 g/are) | Phytotoxicity, Soybean ([1]; 10 g/are) | Phytotoxicity, Corn ([3]; 5 g/are) | Phytotoxicity, Corn ([3]; 10 g/are) | Phytotoxicity, Corn ([4]; 2.5 g/are) | Phytotoxicity, Cotton ([7]; 2.5 g/are) | Phytotoxicity, Cotton ([7]; 10 g/are) | Phytotoxicity, Corn ([12]; 1.25 g/are)
5 (0): Herbicidal activity, Green foxtail ([5]; 10 g/are) | Herbicidal activity, Wild cat ([6]; 5 g/are) | Herbicidal activity, Sicklepod ([8]; 10 g/are) | Herbicidal activity, Wild mustard ([9]; 1.25 g/are) | Herbicidal activity, Wild mustard ([9]; 5 g/are) | Herbicidal activity, Velvetleaf ([10]; 5 g/are) | Herbicidal activity, Velvetleaf ([10]; 10 g/are) | Herbicidal activity, Barnyardgrass ([11]; 5 g/are) | Herbicidal activity, Velvetleaf ([13]; 2.5 g/are) | Herbicidal activity, Velvetleaf ([13]; 10 g/are) | Herbicidal activity, Velvetleaf ([15]; 1.25 g/are) | Herbicidal activity, Velvetleaf ([15]; 5 g/are) | Herbicidal activity, Johnsongrass ([16]; 10 g/are)
4 (1-10): Herbicidal activity, Morningglory ([2]; 2.5 g/are) | Herbicidal activity, Morningglory ([2]; 10 g/are) | Herbicidal activity, Green foxtail ([5]; 2.5 g/are) | Herbicidal activity, Sicklepod ([8]; 5 g/are) | Herbicidal activity, Tall morningglory ([14]; 5 g/are) | Herbicidal activity, Tall morningglory ([14]; 10 g/are) | Herbicidal activity, Johnsongrass ([16]; 2.5 g/are)
3 (11-20): Herbicidal activity, Wild cat ([6]; 1.25 g/are) | Herbicidal activity, Barnyardgrass ([11]; 1.25 g/are)
1 (90-99): Phytotoxicity, Corn ([4]; 10 g/are) | Phytotoxicity, Corn ([12]; 5 g/are)

CCCOc1cc(N2C(=O)C3=C(CCCC3)C2=O)c(F)cc1Cl [compound 3]
4 (1-10): Herbicidal activity, Morningglory ([2]; 2.5 g/are) | Herbicidal activity, Morningglory ([2]; 10 g/are) | Herbicidal activity, Green foxtail ([5]; 2.5 g/are) | Herbicidal activity, Wild cat ([6]; 1.25 g/are) | Herbicidal activity, Sicklepod ([8]; 5 g/are) | Herbicidal activity, Barnyardgrass ([11]; 1.25 g/are) | Herbicidal activity, Tall morningglory ([14]; 5 g/are) | Herbicidal activity, Johnsongrass ([16]; 2.5 g/are)
0 (100): Phytotoxicity, Corn ([3]; 5 g/are) | Phytotoxicity, Corn ([3]; 10 g/are) | Phytotoxicity, Corn ([4]; 2.5 g/are) | Phytotoxicity, Corn ([12]; 1.25 g/are)
1 (90-99): Phytotoxicity, Corn ([4]; 10 g/are) | Phytotoxicity, Corn ([12]; 5 g/are)
5 (0): Herbicidal activity, Green foxtail ([5]; 10 g/are) | Herbicidal activity, Wild cat ([6]; 5 g/are) | Herbicidal activity, Sicklepod ([8]; 10 g/are) | Herbicidal activity, Wild mustard ([9]; 1.25 g/are) | Herbicidal activity, Wild mustard ([9]; 5 g/are) | Herbicidal activity, Velvetleaf ([10]; 5 g/are) | Herbicidal activity, Velvetleaf ([10]; 10 g/are) | Herbicidal activity, Barnyardgrass ([11]; 5 g/are) | Herbicidal activity, Velvetleaf ([13]; 2.5 g/are) | Herbicidal activity, Velvetleaf ([13]; 10 g/are) | Herbicidal activity, Tall morningglory ([14]; 10 g/are) | Herbicidal activity, Velvetleaf ([15]; 1.25 g/are) | Herbicidal activity, Velvetleaf ([15]; 5 g/are) | Herbicidal activity, Johnsongrass ([16]; 10 g/are)

CCOc1cc(N2C(=O)C3=C(CCCC3)C2=O)c(F)cc1Br [compound 13]
4 (1-10): Herbicidal activity, Green foxtail ([5]; 2.5 g/are) | Herbicidal activity, Velvetleaf ([13]; 2.5 g/are) | Herbicidal activity, Johnsongrass ([16]; 2.5 g/are)
1 (90-99): Phytotoxicity, Soybean ([1]; 10 g/are) | Phytotoxicity, Cotton ([7]; 10 g/are) | Phytotoxicity, Corn ([12]; 5 g/are)
2 (21-40): Herbicidal activity, Wild cat ([6]; 1.25 g/are) | Herbicidal activity, Barnyardgrass ([11]; 1.25 g/are)
0 (100): Phytotoxicity, Soybean ([1]; 2.5 g/are) | Phytotoxicity, Corn ([4]; 2.5 g/are) | Phytotoxicity, Corn ([4]; 10 g/are) | Phytotoxicity, Cotton ([7]; 2.5 g/are) | Phytotoxicity, Corn ([12]; 1.25 g/are)
5 (0): Herbicidal activity, Morningglory ([2]; 10 g/are) | Herbicidal activity, Green foxtail ([5]; 10 g/are) | Herbicidal activity, Wild cat ([6]; 5 g/are) | Herbicidal activity, Wild mustard ([9]; 1.25 g/are) | Herbicidal activity, Wild mustard ([9]; 5 g/are) | Herbicidal activity, Barnyardgrass ([11]; 5 g/are) | Herbicidal activity, Velvetleaf ([13]; 10 g/are) | Herbicidal activity, Velvetleaf ([15]; 1.25 g/are) | Herbicidal activity, Velvetleaf ([15]; 5 g/are) | Herbicidal activity, Johnsongrass ([16]; 10 g/are)

CCCOc1cc(N2C(=O)C3=C(CCCC3)C2=O)c(F)cc1Br [compound 14]
4 (1-10): Herbicidal activity, Morningglory ([2]; 10 g/are) | Herbicidal activity, Green foxtail ([5]; 2.5 g/are) | Herbicidal activity, Green foxtail ([5]; 10 g/are) | Herbicidal activity, Velvetleaf ([13]; 2.5 g/are) | Herbicidal activity, Johnsongrass ([16]; 2.5 g/are) | Herbicidal activity, Johnsongrass ([16]; 10 g/are)
1 (90-99): Phytotoxicity, Soybean ([1]; 10 g/are) | Phytotoxicity, Corn ([12]; 5 g/are)
3 (11-20): Herbicidal activity, Wild cat ([6]; 1.25 g/are) | Herbicidal activity, Barnyardgrass ([11]; 1.25 g/are)
5 (0): Herbicidal activity, Wild cat ([6]; 5 g/are) | Herbicidal activity, Wild mustard ([9]; 1.25 g/are) | Herbicidal activity, Wild mustard ([9]; 5 g/are) | Herbicidal activity, Barnyardgrass ([11]; 5 g/are) | Herbicidal activity, Velvetleaf ([13]; 10 g/are) | Herbicidal activity, Velvetleaf ([15]; 1.25 g/are) | Herbicidal activity, Velvetleaf ([15]; 5 g/are)
0 (100): Phytotoxicity, Soybean ([1]; 2.5 g/are) | Phytotoxicity, Corn ([4]; 2.5 g/are) | Phytotoxicity, Corn ([4]; 10 g/are) | Phytotoxicity, Cotton ([7]; 2.5 g/are) | Phytotoxicity, Cotton ([7]; 10 g/are) | Phytotoxicity, Corn ([12]; 1.25 g/are)

CCC(C)Oc1cc(N2C(=O)C3=C(CCCC3)C2=O)c(F)cc1Br (centres unmarked) [compound 15]
4 (1-10): Herbicidal activity, Green foxtail ([5]; 10 g/are) | Herbicidal activity, Velvetleaf ([13]; 2.5 g/are) | Herbicidal activity, Johnsongrass ([16]; 2.5 g/are) | Herbicidal activity, Johnsongrass ([16]; 10 g/are)
0 (100): Phytotoxicity, Soybean ([1]; 2.5 g/are) | Phytotoxicity, Corn ([4]; 2.5 g/are) | Phytotoxicity, Corn ([4]; 10 g/are) | Phytotoxicity, Cotton ([7]; 2.5 g/are) | Phytotoxicity, Corn ([12]; 1.25 g/are)
2 (21-40): Herbicidal activity, Wild cat ([6]; 1.25 g/are) | Herbicidal activity, Barnyardgrass ([11]; 1.25 g/are)
1 (90-99): Phytotoxicity, Soybean ([1]; 10 g/are) | Phytotoxicity, Cotton ([7]; 10 g/are) | Phytotoxicity, Corn ([12]; 5 g/are)
5 (0): Herbicidal activity, Morningglory ([2]; 10 g/are) | Herbicidal activity, Wild cat ([6]; 5 g/are) | Herbicidal activity, Wild mustard ([9]; 1.25 g/are) | Herbicidal activity, Wild mustard ([9]; 5 g/are) | Herbicidal activity, Barnyardgrass ([11]; 5 g/are) | Herbicidal activity, Velvetleaf ([13]; 10 g/are) | Herbicidal activity, Velvetleaf ([15]; 1.25 g/are) | Herbicidal activity, Velvetleaf ([15]; 5 g/are)
